Laboratory results taken from paper PMC6803055 (Journal of pharmacological and toxicological methods, 2019).
Like-named read-outs stand apart in the source and are kept apart here.

What was measured:
adenosine A3 receptor = target: T1, adenosine A3 receptor (Homo sapiens, UniProt P0DMS8); test: in vitro binding assay
T1 sequence (P0DMS8 1-318): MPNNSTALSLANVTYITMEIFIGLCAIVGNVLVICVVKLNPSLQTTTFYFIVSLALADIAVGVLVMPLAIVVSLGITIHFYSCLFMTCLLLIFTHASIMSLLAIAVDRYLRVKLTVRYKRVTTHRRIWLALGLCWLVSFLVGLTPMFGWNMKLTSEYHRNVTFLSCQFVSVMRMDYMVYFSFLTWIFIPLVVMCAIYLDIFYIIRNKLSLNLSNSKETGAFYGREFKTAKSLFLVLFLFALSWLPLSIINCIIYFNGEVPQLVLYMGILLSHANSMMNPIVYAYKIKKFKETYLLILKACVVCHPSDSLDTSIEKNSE

PDE6 = test: in vitro enzyme assay; format: biochemical; conditions: 100 μM (36 μg/mL) DSM421
PDE5 = PDE5 (Homo sapiens, UniProt O76074); test: in vitro enzyme assay; format: biochemical; conditions: 100 μM (36 μg/mL) DSM421
[1] = target: transient receptor potential cation channel subfamily V member 1 (TRPV1) (Homo sapiens, UniProt Q8NER1); test: in vitro functional assays for agonist and antagonist effects; format: biochemical
transient receptor potential cation channel subfamily V member 1 (TRPV1), sequence (Q8NER1 whole entry, species assumed): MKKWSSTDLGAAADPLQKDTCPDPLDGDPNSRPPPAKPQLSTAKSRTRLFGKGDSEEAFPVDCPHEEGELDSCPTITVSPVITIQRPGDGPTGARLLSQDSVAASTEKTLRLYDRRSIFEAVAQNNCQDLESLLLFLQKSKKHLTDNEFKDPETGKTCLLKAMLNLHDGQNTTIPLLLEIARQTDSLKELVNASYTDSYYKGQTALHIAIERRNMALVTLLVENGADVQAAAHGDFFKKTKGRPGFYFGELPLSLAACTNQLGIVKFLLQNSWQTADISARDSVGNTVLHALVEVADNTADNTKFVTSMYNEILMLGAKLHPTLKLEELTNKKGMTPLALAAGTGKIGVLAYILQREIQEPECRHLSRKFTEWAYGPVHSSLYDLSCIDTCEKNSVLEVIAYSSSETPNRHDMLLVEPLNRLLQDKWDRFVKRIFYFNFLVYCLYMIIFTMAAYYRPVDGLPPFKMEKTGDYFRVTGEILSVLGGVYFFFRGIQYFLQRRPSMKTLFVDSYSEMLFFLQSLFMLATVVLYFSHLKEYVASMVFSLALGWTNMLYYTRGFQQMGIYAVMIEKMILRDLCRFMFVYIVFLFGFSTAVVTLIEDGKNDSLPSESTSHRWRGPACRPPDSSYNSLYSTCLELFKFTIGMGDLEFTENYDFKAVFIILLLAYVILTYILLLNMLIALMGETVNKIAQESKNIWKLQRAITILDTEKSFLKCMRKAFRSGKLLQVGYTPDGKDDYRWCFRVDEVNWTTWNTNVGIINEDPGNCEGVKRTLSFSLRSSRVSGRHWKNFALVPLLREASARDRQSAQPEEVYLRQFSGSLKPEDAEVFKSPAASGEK

pharmacokinetics in rats = format: in vivo; conditions: rat; for plasma Cmax (mean ± S.E.M.) / Tmax (mean ± S.E.M.): n=4
Male Sprague Dawley rats [2] = test: respiratory function, whole-body plethysmography; format: in vivo, rat; conditions: for increase in tidal volume: throughout 5 hours post-dosing, not significant
Male Sprague Dawley rats [3] = test: stress-related hormones after plethysmography testing; format: in vivo, rat; conditions: approximately 5 hours post-dosing, 200, 500, 750 mg/kg p.o., whole-body and head-out testing
rats [4] = test: original GLP respiratory study using head-out plethysmography; format: in vivo, rat; conditions: original head-out study, 200, 500, 750 mg/kg p.o.
rats [5] = test: Irwin test; format: in vivo, rat; conditions: oral doses of 200, 500 and 750 mg/kg
dogs = test: cardiovascular and respiratory assessment in telemetry-instrumented dogs; format: in vivo, dog
[6] = estimated plasma maximum concentrations in dogs; format: in vivo, dog
Male Sprague Dawley rats [7] = conditions: rat, in vivo, po
[8] = whole-body, 200 and 500 mg/kg p.o., peak at 5 hours post-dosing

## Cc1cc(Nc2ccc(C(F)(F)F)nc2)n2nc(C(C)(F)F)nc2n1 [DSM421, 2-(1,1-difluoroethyl)-5-methyl-N-[6-trifluromethyl-3-pyridyl]-[1,2,4]triazolo[1,5-a]pyrimidin-7-amine]
Adenosine A3 receptor; 10 μM DSM421
  inhibition of control specific binding: 40%
Adenosine A3 receptor; 100 μM (36 μg/mL) DSM421
  inhibition of control specific binding: 91%
PDE6
  inhibition: 72%
PDE5
  inhibition: 59%
[1]; 100 μM DSM421, agonist mode
  agonist effect (percent of control agonist response): 26%
[1]; 100 μM DSM421, antagonist mode
  antagonist effect: no effect
Pharmacokinetics in rats; 200 mg/kg p.o.
  plasma Cmax (mean ± S.E.M.): 49 µg/mL
Pharmacokinetics in rats; 500 mg/kg p.o.
  Tmax (mean ± S.E.M.): 18 ± 3.5 h
  plasma Cmax (mean ± S.E.M.): 73 µg/mL
Pharmacokinetics in rats; 750 mg/kg p.o. (high dose)
  plasma level by 6 days after dosing relative to LLOQ (0.005 μg/mL): only slightly greater than that
Pharmacokinetics in rats; 750 mg/kg p.o.
  Tmax (mean ± S.E.M.): 27 ± 7.5 h
  plasma Cmax (mean ± S.E.M.): 97 µg/mL
Male Sprague Dawley rats [2]; whole-body chambers, 200, 500, 750 mg/kg p.o., 5-hour post-dosing period
  clinical signs: no DSM421-related clinical signs
Male Sprague Dawley rats [2]; whole-body, 200 mg/kg p.o.
  increase in tidal volume: approximately 5%
Male Sprague Dawley rats [2]; whole-body, 500 mg/kg p.o.
  increase in tidal volume: ~6%
Male Sprague Dawley rats [2]; [8]
  mean minute volume increase: approximately 28%
  mean respiratory rate increase compared to vehicle control: 22–23%
Male Sprague Dawley rats [3]
  ACTH plasma level, effect of dose: no overall effect for dose
  aldosterone serum level, effect of dose: no overall effect for dose
  corticosterone serum level, effect of dose: overall effect for dose
Rats [4]
  time after administration of death or euthanasia in extremis: 3 to 5 h
Rats [5]
  Irwin test effects: no effects were observed
dogs; 100 mg/kg p.o.
  clinical observation: emesis
  increase in minute volume: 4- to 5 fold
  increase in respiratory rate: 4- to 5 fold
dogs; 30 and 100 mg/kg p.o.
  cardiovascular function (heart rate, blood pressure, and ECG): no effects
  tidal volume: no effects
dogs; p.o.
  no-observed-effect level (NOEL): 30 mg/kg
[6]; 30 mg/kg p.o.
  estimated maximum concentration (Cmax) in plasma: 29 µg/mL
[6]; 100 mg/kg p.o.
  estimated maximum concentration (Cmax) in plasma: 69 µg/mL
Male Sprague Dawley rats [7]; 200 mg/kg
  changes in respiratory rate: no changes in respiratory rate
  clinical signs: no DSM421-related clinical signs
  mean minute volume increase above the control group: approximately 17%
Male Sprague Dawley rats [7]; 500 mg/kg
  animals with hypoactivity, salivation, dyspnea and/or increased body temperature: 2 of the eight animals tested
  increase in respiratory rate above controls: 5–17%
  mean minute volume increase above the control group: ~48%
Male Sprague Dawley rats [7]; 750 mg/kg
  increase in respiratory rate above controls (peak): 41–47%
  increase in tidal volume above controls (peak): 46–57%
  mean minute volume increase above controls (peak): 141%
